The text below walks through data of patent publication US7982042B2, “Thiozanthene derivatives as delta-opioid modulators” (priority 2003, dated 2011).

Structures are written as SMILES. Like-named read-outs stand apart in the source and are kept apart here. A value given as a limit tells only on which side of the number the result lay.

The target of experiment [1] is T1, human delta opioid receptor (Homo sapiens, UniProt P41143).
T1 construct: purchased Receptor Biology, Inc. (Baltimore, Md.); host or cells: CHO cells expressing the human delta receptor (membranes)
T1 sequence (P41143 whole entry): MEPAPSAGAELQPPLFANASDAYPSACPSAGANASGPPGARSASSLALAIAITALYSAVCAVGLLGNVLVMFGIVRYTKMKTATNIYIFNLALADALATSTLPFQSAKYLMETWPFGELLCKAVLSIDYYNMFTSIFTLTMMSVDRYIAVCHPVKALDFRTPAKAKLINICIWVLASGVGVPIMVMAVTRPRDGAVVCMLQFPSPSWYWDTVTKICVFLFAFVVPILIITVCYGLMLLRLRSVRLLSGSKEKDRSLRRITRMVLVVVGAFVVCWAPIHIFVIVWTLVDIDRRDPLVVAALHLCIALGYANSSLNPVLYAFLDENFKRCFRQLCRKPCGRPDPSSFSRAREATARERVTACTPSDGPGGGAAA
Put plainly: [35S]GTPγS binding assay in CHO-hδ cell membranes. Format: biochemical. On the procedure: CHO-hδ cell membranes are purchased from Receptor Biology, Inc. (Baltimore, Md.). 10 mg/ml of membrane protein is suspended in 10 mM TRIS-HC pH 7.2, 2 mM EDTA, 10% sucrose.
Membranes are maintained at 4-8° C. 1 ml of membranes is added into 15 ml cold binding assay buffer. The assay buffer contained 50 mM HEPES, pH 7.6, 5 mM MgCl2, 100 mM NaCl, 1 mM DTT and 1 mM EDTA. The membrane suspension is homogenized with a Polytron 2 times and centrifuged at 3000 rpm for 10 min. The supernatant is then centrifuged at 18,000 rpm for 20 min. The pellet is saved in a tube and 10 ml assay buffer is added into the tube. The pellet and buffer are mixed with a Polytron.
The pellet membranes (20 μg/ml) are preincubated with SPA (10 mg/ml) at 25° C. for 45 min in the assay buffer. The SPA (5 mg/ml) coupled with membranes (10 μg/ml) is then incubated with 0.5 nM [^35S]GTPgS in the same HEPES buffer containing 50 μM GDP in total volume of 200 μl. Increasing concentrations of receptor agonists are used to stimulate [^35S]GTPgS binding. The basal binding is tested in the absence of agonists and non-specific binding is tested in the presence of 10 μM unlabeled GTP S. The data are analyzed on a Top counter.

Experiment [2] addresses T2, Rat brain delta opioid receptor (Rattus norvegicus, UniProt P33533).
T2 construct: from tissue; host or cells: rat brain
Description: Rat brain delta opioid receptor binding.

For a further experiment, the target named is T3, human mu opioid receptor (Homo sapiens, UniProt P35372).
T3 construct: purchased Receptor Biology, Inc. (Baltimore, Md.); host or cells: CHO cells expressing the human mu receptor (membranes)
T3 sequence (P35372 whole entry): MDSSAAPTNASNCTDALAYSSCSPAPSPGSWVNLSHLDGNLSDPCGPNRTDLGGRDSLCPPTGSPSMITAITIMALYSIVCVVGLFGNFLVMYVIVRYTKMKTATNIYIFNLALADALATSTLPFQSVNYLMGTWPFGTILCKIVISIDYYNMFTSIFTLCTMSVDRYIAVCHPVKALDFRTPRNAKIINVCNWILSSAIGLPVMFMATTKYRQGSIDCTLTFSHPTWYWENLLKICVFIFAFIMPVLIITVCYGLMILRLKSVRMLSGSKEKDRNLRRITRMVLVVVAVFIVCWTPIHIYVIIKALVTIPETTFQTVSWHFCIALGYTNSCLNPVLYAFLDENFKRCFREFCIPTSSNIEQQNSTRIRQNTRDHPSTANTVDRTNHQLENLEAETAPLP
Put plainly: [35S]GTPγS binding assay in CHO-hμ cell membranes. Format: biochemical. Conditions: inhibition relative to 1 uM DAMGO; for inhibition at 10 µM: read-out: hMOR GTPγS % I @10 μM. On the procedure:
CHO-hμ cell membranes are purchased from Receptor Biology, Inc. (Baltimore, Md.). About 10 mg/ml of membrane protein is suspended in 10 mM TRIS-HC pH 7.2, 2 mM EDTA, 10% sucrose.
Membranes are maintained at 4-8° C. 1 ml of membranes is added into 15 ml cold binding assay buffer. The assay buffer contains 50 mM HEPES, pH 7.6, 5 mM MgCl2, 100 mM NaCl, 1 mM DTT and 1 mM EDTA. The membrane suspension is homogenized with a Polytron 2 times and centrifuged at 3000 rpm for 10 min. The supernatant is then centrifuged at 18,000 rpm for 20 min. The pellet is saved in a tube and 10 ml assay buffer is added to the tube. The pellet and buffer are mixed with a Polytron.
The pellet membranes (20 μg/ml) are preincubated with SPA (10 mg/ml) at 25 C′ for 45 min in the assay buffer. The SPA (5 mg/ml) coupled with membranes (10 μg/ml) is then incubated with 0.5 nM [^35S]GTPgS in the same HEPES buffer containing 50 μM GDP in total volume of 200 μl. Increasing concentrations of receptor agonists are used to stimulate [^35S]GTPgS binding. The basal binding is tested in the absence of agonists and non-specific binding is tested in the present 10 μM unlabeled GTPγS. The data are analyzed on a Top counter.
% of Basal=(stimulate−non-specific)*100/(basal−non specific). % inhibition value values are calculated using a formula, % Inhibition=(% Basal of 1 uM DAMGO−% Basal of compound)*100/(% Basal of 1 uM DAMGO−100)
For orientation: GTPγS resists hydrolysis and so accumulates on activated G proteins.

Experiment [3] deals with T4, Rat brain mu opioid receptor (Rattus norvegicus, UniProt P33535).
T4 construct: from tissue; host or cells: forebrain of male Sprague Dawley rats
T4 sequence (P33535 whole entry): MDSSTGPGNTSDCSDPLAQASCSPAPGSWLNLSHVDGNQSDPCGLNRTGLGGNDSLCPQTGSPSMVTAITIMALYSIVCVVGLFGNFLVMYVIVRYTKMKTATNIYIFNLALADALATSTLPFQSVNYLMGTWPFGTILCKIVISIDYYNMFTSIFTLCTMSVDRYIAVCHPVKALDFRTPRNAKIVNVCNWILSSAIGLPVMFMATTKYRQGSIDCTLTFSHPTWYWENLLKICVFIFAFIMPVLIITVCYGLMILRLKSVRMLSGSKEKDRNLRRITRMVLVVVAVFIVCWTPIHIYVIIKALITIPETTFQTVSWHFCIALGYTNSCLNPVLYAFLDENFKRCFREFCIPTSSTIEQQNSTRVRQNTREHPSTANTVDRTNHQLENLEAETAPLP
Description: Rat brain mu opioid receptor binding assay ([3H]DAMGO). On the procedure: • Procedure: Male, Sprague Dawley (150-250 g, VAF, Charles River, Kingston, N.Y.) are killed by CO2, and their brains removed and placed immediately in ice cold Tris HCl buffer (50 mM, pH 7.4). The forebrains are separated from the remainder of the brain by a coronal transection, beginning dorsally at the colliculi and passing ventrally through the midbrain-pontine junction. After dissection, the forebrains are homogenized in Tris buffer in a Teflon®-glass homogenizer. The homogenate is diluted to a concentration of 1 g of forebrain tissue per 80 mL Tris and centrifuged at 39,000×g for 10 min. The pellet is resuspended in the same volume of Tris buffer containing 5 mM MgCl2 with several brief pulses from a Polytron homogenizer. This particulate preparation is used for the mu-opioid binding assays. […] Kd and Ki values are calculated using GraphPad PRISM data analysis program.

[4] abbreviates: hDOR GTPγS EC50, human delta opioid receptor GTPγS functional assay.
Where [5] appears, read: human delta opioid receptor GTPγS functional assay, read-out: hDOR GTPγS EC50.

T2 sequence (P33533 whole entry): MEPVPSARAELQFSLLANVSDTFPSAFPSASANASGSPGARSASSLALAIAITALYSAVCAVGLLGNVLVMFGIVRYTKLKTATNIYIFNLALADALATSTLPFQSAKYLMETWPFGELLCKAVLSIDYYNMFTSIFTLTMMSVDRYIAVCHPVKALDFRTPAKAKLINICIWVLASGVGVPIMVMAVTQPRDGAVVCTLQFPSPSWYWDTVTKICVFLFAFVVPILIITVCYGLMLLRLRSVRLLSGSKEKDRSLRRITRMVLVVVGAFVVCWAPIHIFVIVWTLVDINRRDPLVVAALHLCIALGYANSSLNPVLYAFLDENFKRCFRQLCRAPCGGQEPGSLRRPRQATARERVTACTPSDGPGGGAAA

Usually EC50 stands for the concentration needed to bring the measured effect to its halfway point. In general, Ki refers to a measure of affinity in units of concentration, obtained from inhibition or displacement. For `CCN(CC)C(=O)c1ccc2c(c1)Oc1ccccc1C2=C1CCNCC1` [Compound 3, 9-Piperidin-4-ylidene-9H-xanthene-3-carboxylic acid diethylamide], the EC50 in experiment [1] (setting [4]) came to 47 nM. Moreover, the Ki in experiment [2] (rDOR Ki) was 0.95 nM; in experiment [3] (rMOR Ki), 6790 nM. For the same compound, the inhibition at 10 µM on human mu opioid receptor came to 1%.

Take `CCN(CC)C(=O)c1ccc2c(c1)OCc1ccccc1C2=C1CCN(Cc2ccc3c(c2)OCO3)CC1` [Compound 4, 11-(1-Benzo[1,3]dioxol-5-ylmethyl-piperidin-4-ylidene)-6,11-dihydro-dibenzo[b,e]oxepine-3-carboxylic acid diethylamide]: the EC50 in experiment [1] (setting [5]) stood at 552 nM. In addition, the Ki came out at 0.39 nM in experiment [2] (rDOR Ki) and 301 nM in experiment [3] (read-out: rMOR Ki). For the same compound, the inhibition at 10 µM at human mu opioid receptor came out at 9%.

Consider `CCN(CC)C(=O)c1ccc2c(c1)OCc1ccccc1C2=C1CCN(CCc2ccccc2)CC1` [Compound 5, 11-(1-Phenylethylpiperidin-4-ylidene)-6,11-dihydro-dibenzo[b,e]oxepine-3-caroboxylic diethylamide], for which, in experiment [1] (setting [5]), the EC50 is above 10000 nM. For the same compound, the inhibition at 10 µM in experiment [1] (read-out: inhibition of GTP binding induced with 1 uM DPDPE) is 19%. In addition, the Ki stood at 25.3 nM in experiment [2] (rDOR Ki) and 1290 nM in experiment [3] (read-out: rMOR Ki).

Turning to `C=CCN1CCC(=C2c3ccccc3COc3cc(C(=O)N(CC)CC)ccc32)CC1` [Compound 6, 11-(1-Allyl-piperidin-4-ylidene)-6,11-dihydro-dibenzo[b,e]oxepine-3-carboxylic acid diethylamide], in experiment [1] (setting [5]), the EC50 worked out at 128 nM. The results for the Ki in experiment [2] (rDOR Ki) and in experiment [3] (read-out: rMOR Ki) were 4.25 nM and 7910 nM, respectively.

Regarding `CCN(CC)C(=O)c1ccc2c(c1)Oc1ccccc1C2=C1CCN(C)CC1` [Compound 7, 9-(1-Methyl-piperidin-4-ylidene)-9H-xanthene-3-carboxylic acid diethylamide], the Ki in experiment [2] (rDOR Ki) worked out at 25.7 nM; in experiment [3] (rMOR Ki), 9190 nM. At human mu opioid receptor, the inhibition at 10 µM was found to be 1%.

Regarding `C=CCN1CCC(=C2c3ccccc3Oc3cc(C(=O)N(CC)CC)ccc32)CC1` [Compound 8, 9-(1-Allyl-piperidin-4-ylidene)-9H-xanthene-3-carboxylic acid diethylamide], the EC50 in experiment [1] (setting [5]) was 620 nM. Also, the Ki came to 2.1 nM in experiment [2] (rDOR Ki) and 2820 nM in experiment [3] (read-out: rMOR Ki). The inhibition at 10 µM at human mu opioid receptor was determined as 1%.

Take `CCN(CC)C(=O)c1ccc2c(c1)Oc1ccccc1C2=C1CCN(CCc2ccccc2)CC1` [Compound 22]: the EC50 in experiment [1] (setting [5]) was above 10000 nM. Moreover, the Ki in experiment [2] (rDOR Ki) came to 45.4 nM; in experiment [3] (read-out: rMOR Ki), 2130 nM. The inhibition at 10 µM on human mu opioid receptor was 2%.

As for `CCN(CC)C(=O)c1ccc2c(c1)Oc1ccccc1C2=C1CC2CCC(C1)N2C` [Compound 23, 9-(8-Methyl-8-aza-bicyclo[3.2.1]oct-3-ylidene)-9H-xanthene-3-carboxylic acid diethylamide], in experiment [1] (setting [4]), the EC50 amounted to 245 nM. For the same compound, the Ki in experiment [2] (rDOR Ki) worked out at 48.4 nM; in experiment [3] (rMOR Ki) it was 5560 nM.

With `CCN(CC)C(=O)c1ccc2c(c1)Oc1ccccc1C2=C1CC2CCC(C1)N2` [Compound 24, 9-(8-Aza-bicyclo[3.2.1]oct-3-ylidene)-9H-xanthene-3-carboxylic acid diethylamide], the EC50 in experiment [1] (setting [4]) worked out at 10.2 nM. Also, the Ki was 0.57 nM in experiment [2] (rDOR Ki) and 5690 nM in experiment [3] (rMOR Ki). In addition, at human mu opioid receptor, the inhibition at 10 µM amounted to 1%.

Turning to `CCNC(=O)c1ccc2c(c1)OCc1ccccc1C2=C1CC2CCC(C1)N2CCc1ccccc1` [Compound 26, 1-(8-Phenethyl-8-aza-bicyclo[3.2.1]oct-3-ylidene)-6,11-dihydro-dibenzo[b,e]oxepine-3-carboxylic acid ethylamide], the Ki in experiment [2] (read-out: rDOR Ki) is 5480 nM; in experiment [3] (read-out: rMOR Ki), 15.6 nM. For the same compound, the “hMOR GTPγS % I @10 μM” value on human mu opioid receptor is reported as 41.00%.

The compound `CCN(CC)C(=O)c1ccc2c(c1)Oc1ccccc1C2=C1CCN(Cc2ccoc2)CC1` [Compound 28, 9-(1-Furan-3-ylmethyl-piperidin-4-ylidene)-9H-xanthene-3-carboxylic acid diethylamide] displayed an EC50 in experiment [1] (setting [4]) of 70.3 nM. Further, the Ki in experiment [2] (rDOR Ki) came out at 0.07 nM; in experiment [3] (rMOR Ki) it was 811 nM. The inhibition at 10 µM at human mu opioid receptor was 24%.

For `CCN(CC)C(=O)c1ccc2c(c1)Oc1ccccc1C2=C1CCN(Cc2ccccn2)CC1` [Compound 29], the EC50 in experiment [1] (setting [4]) was 31.6 nM. Moreover, the Ki stood at 0.05 nM in experiment [2] (rDOR Ki) and 362 nM in experiment [3] (rMOR Ki). For the same compound, the inhibition at 10 µM at human mu opioid receptor came to 34%.

As for `CCN(CC)C(=O)c1ccc2c(c1)Oc1ccccc1C2=C1CCN(Cc2ccccc2O)CC1` [Compound 30], the EC50 in experiment [1] (setting [5]) was 2480 nM. Moreover, the values for the Ki in experiment [2] (rDOR Ki) and in experiment [3] (read-out: rMOR Ki) were 10.9 nM and 912 nM, respectively. In addition, at human mu opioid receptor, the inhibition at 10 µM was 24%.

Consider `C=CCN1C2CCC1CC(=C1c3ccccc3Oc3cc(C(=O)N(CC)CC)ccc31)C2` [Compound 38, 9-(8-Allyl-8-aza-bicyclo[3.2.1]oct-3-ylidene)-9H-xanthene-3-carboxylic acid diethylamide], for which a half-maximal response in experiment [1] (setting [4]) (EC50) required 342 nM. In addition, the inhibition constant (Ki) in experiment [2] (rDOR Ki) was 31.8 nM; in experiment [3] (rMOR Ki), 5520 nM.

`CCN(CC)C(=O)c1ccc2c(c1)Oc1ccccc1C2=C1CC2CCC(C1)N2CCOC` [Compound 39, 9-[8-(2-Methoxy-ethyl)-8-aza-bicyclo[3.2.1]oct-3-ylidene]-9H-xanthene-3-carboxylic acid diethylamide]: in experiment [1] (setting [4]), the concentration for a half-maximal effect (EC50) is 94.9 nM. For the same compound, the Ki is 8.43 nM in experiment [2] (rDOR Ki) and 1680 nM in experiment [3] (rMOR Ki).

For the compound `CCN(CC)C(=O)c1ccc2c(c1)Oc1ccccc1C2=C1CC2CCC(C1)N2CCSC` [Compound 40, 9-[8-(Methylsulfanyl-ethyl)-8-aza-bicyclo[3.2.1]oct-3-ylidene]-9H-xanthene-3-carboxylic acid diethylamide], the EC50 in experiment [1] (setting [4]) was 267 nM. For the same compound, the Ki in experiment [2] (rDOR Ki) is 12 nM; in experiment [3] (rMOR Ki) it was above 10000 nM.

Regarding `CCN(CC)C(=O)c1ccc2c(c1)Sc1ccccc1C2=C1CC2CCC(C1)N2` [Compound 48, 9-(8-Aza-bicyclo[3.2.1]oct-3-ylidene)-9H-thioxanthene-3-carboxylic acid diethylamide], it took 18.8 nM to reach a half-maximal effect in experiment [1] (setting [4]) (EC50). The Ki was 0.9 nM in experiment [2] (rDOR Ki) and above 100 nM in experiment [3] (rMOR Ki).

Consider `CCN(CC)C(=O)c1ccc2c(c1)Sc1ccccc1C2=C1CC2CCC(C1)N2CC1CC1` [Compound 49], for which it took 252 nM to reach a half-maximal effect in experiment [1] (setting [4]) (EC50). The values for the Ki in experiment [2] (rDOR Ki) and in experiment [3] (rMOR Ki) were 25 nM and above 100 nM, respectively.

In experiment [1] (setting [4]), `CCN(CC)C(=O)c1ccc2c(c1)Sc1ccccc1C2=C1CC2CCC(C1)N2CCCSC` [Compound 50] had an EC50 of 236 nM. The results for the Ki in experiment [2] (rDOR Ki) and in experiment [3] (rMOR Ki) were 10.2 nM and above 100 nM, respectively.

Turning to `CCN(CC)C(=O)c1ccc2c(c1)Sc1ccccc1C2=C1CC2CCC(C1)N2CCO` [Compound 51, 9-[8-(2Hydroxy-ethyl)-8-aza-bicyclo[3.2.1]oct-3-ylidene]-9H-thioxanthene-3-carboxylic acid diethylamide], in experiment [1] (setting [4]), the 50% effective concentration (EC50) was 62.8 nM. For the same compound, the Ki in experiment [2] (rDOR Ki) was 4.85 nM; in experiment [3] (rMOR Ki), above 100 nM.
